Experimental data published in publication PMC7827406, “Structure–Activity Relationship (SAR) Study of Spautin-1 to Entail the Discovery of Novel NEK4 Inhibitors” (International Journal of Molecular Sciences, 2021).
Read-outs that look alike come from different tables or passages of the source.

How the values were obtained:
Assay in all cases: biochemical
Design in all cases: Eurofins KinaseProfiler full panel at Km ATP, residual kinase activity (%) relative to DMSO
CHK1(h) = molecular target: T1, CHK1(h) (Homo sapiens, UniProt O14757)
T1 construct: gene CHEK1
T1 sequence (O14757 1-476): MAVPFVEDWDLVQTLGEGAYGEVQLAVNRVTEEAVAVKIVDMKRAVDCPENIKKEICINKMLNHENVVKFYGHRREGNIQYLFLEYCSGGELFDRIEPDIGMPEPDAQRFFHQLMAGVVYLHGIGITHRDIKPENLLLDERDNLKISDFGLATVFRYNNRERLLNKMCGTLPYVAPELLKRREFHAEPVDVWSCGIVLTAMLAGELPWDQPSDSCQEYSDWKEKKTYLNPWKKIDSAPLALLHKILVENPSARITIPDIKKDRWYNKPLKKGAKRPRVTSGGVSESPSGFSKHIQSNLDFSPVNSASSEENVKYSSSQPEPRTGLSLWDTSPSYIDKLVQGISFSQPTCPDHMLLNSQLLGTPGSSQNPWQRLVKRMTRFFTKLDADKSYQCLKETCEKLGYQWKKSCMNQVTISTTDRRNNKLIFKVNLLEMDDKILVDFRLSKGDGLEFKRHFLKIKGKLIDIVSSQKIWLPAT
In short: (§1)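 Compounds screened at 10 µM in radiometric kinase activity assays at Km ATP, reported as remaining kinase activity (%). A KINOMEscan competition-binding screen at 10 µM measured DNA-tagged kinase retained on immobilized active-site ligand by qPCR.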

DCAMKL3(h) = molecular target: T2, DCAMKL3(h) (Homo sapiens, UniProt Q9C098)
T2 construct: gene DCLK3
T2 sequence (Q9C098 1-648): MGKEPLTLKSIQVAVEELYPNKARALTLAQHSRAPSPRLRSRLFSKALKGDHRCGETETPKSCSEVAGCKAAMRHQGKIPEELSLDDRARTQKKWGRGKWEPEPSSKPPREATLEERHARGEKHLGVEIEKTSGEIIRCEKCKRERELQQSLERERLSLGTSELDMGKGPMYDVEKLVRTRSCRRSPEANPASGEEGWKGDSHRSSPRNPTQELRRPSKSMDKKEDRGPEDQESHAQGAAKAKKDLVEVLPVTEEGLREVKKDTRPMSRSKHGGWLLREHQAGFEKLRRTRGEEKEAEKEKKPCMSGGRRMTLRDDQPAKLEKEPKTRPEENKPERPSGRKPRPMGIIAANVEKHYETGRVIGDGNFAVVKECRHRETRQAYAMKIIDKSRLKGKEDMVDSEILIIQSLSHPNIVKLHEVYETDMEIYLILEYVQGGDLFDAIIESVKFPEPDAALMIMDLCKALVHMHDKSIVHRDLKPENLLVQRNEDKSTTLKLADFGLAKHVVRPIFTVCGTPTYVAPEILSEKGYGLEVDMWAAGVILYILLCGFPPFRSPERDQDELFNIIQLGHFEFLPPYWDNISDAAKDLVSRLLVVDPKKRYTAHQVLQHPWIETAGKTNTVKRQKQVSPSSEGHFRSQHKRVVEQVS
In short: as §1

DMPK(h) = molecular target: T3, DMPK(h) (Homo sapiens, UniProt Q09013)
T3 sequence (Q09013 1-629): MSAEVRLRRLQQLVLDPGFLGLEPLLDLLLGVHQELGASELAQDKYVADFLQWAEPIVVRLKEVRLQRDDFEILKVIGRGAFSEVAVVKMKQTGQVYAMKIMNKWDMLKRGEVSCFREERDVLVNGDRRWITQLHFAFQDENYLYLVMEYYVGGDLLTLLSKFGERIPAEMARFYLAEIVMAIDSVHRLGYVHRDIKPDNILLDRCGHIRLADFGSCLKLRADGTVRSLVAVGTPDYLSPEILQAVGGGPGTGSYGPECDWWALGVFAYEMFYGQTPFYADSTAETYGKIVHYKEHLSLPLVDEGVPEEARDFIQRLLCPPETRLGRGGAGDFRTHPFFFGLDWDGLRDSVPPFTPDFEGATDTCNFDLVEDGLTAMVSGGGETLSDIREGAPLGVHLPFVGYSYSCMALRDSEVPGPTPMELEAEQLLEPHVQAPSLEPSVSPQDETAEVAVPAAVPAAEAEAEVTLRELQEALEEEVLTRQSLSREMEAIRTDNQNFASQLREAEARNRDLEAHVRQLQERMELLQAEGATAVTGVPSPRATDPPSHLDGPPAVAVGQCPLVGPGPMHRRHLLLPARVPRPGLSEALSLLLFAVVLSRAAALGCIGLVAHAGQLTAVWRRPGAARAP
In short: as §1

DRAK2(h) = molecular target: T4, DRAK2(h) (Homo sapiens, UniProt O94768)
T4 construct: gene STK17B
T4 sequence (O94768 1-372): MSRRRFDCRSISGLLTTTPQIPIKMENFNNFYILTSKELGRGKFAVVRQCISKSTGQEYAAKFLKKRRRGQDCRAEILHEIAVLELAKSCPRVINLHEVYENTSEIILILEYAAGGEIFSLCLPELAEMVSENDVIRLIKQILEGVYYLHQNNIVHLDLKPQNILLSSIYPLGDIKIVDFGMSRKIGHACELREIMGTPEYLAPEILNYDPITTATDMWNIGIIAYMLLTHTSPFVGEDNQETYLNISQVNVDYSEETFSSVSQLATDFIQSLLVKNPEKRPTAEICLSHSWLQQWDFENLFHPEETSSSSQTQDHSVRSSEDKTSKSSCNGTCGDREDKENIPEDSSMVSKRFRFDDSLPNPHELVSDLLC
In short: as §1

[1] = read-out: Residual activity (%) 5at
[2] = read-out: Residual activity (%) 5as
[3] = read-out: Residual activity (%) 5ay
[4] = read-out: Residual activity (%) Spautin-1 5aa

Fc1ccc2ncnc(NCCc3ccc(Cl)cc3)c2c1 [5at, N-[2-(4-Chlorophenyl)Ethyl]-6-Fluoro-4-Quinazolinamine] showed a remaining activity at 10 µM (CHK1(h); [1]) of 73%, a remaining activity at 10 µM (DCAMKL3(h); [1]) of 107% and a remaining activity at 10 µM (DMPK(h); [1]) of 80%. The remaining activity at 10 µM (DRAK2(h); [1]) was 88%.
For Fc1ccc(CCNc2ncnc3ccc(F)cc23)cc1 [5as, 6-Fluoro-N-[2-(4-Fluorophenyl)Ethyl]-4-Quinazolinamine], the remaining activity at 10 µM (CHK1(h); [2]) was 69%, the remaining activity at 10 µM (DCAMKL3(h); [2]) was 108% and the remaining activity at 10 µM (DMPK(h); [2]) was 90%. It also gave a remaining activity at 10 µM (DRAK2(h); [2]) of 73%.
COc1ccc2ncnc(Nc3cccc(F)c3)c2c1 [5ay, N-(3-Fluorophenyl)-6-Methoxy-4-Quinazolinamine] was tested, and the remaining activity at 10 µM (CHK1(h); [3]) was 76%, the remaining activity at 10 µM (DCAMKL3(h); [3]) was 108% and the remaining activity at 10 µM (DMPK(h); [3]) was 99%. The remaining activity at 10 µM (DRAK2(h); [3]) was 65%.
Fc1ccc(CNc2ncnc3ccc(F)cc23)cc1 [5aa, 6-Fluoro-N-(4-fluorobenzyl)-4-Quinazolinamine] gave a remaining activity at 10 µM (CHK1(h); [4]) of 80%, a remaining activity at 10 µM (DCAMKL3(h); [4]) of 102% and a remaining activity at 10 µM (DMPK(h); [4]) of 79%. It also gave a remaining activity at 10 µM (DRAK2(h); [4]) of 88%.
